PMC12078333, “Pharmacokinetic evaluation and bioavailability of KPT-335 (Verdinexor) in cats” (Frontiers in Veterinary Science, 2025)
“And” between values parts separate entries of the source, which are not always exact repeats. Identical values can stand only once. Like-named read-outs stand apart in the source and are kept apart here.

Assay: Pharmacokinetics study of KPT-335 in cats (i.v. injection, p.o. capsules and tablets; UPLC-MS/MS, non-compartmental analysis)
Assay type: in vivo
Conditions: for Plasma concentration: individual cats 1-6; for AUC(0-t) / Cmax: plasma
Description: In this study, a parallel trial design was employed, 42 adult domestic cats (21 males and 21 females), aged 1 to 2 years and weighing 2.5 ± 0.25 kg. Cats were grouped by random number, with half male and female in each group, and all cats were determined to be systemically healthy during an initial screening visit 1 week prior to the experiment. They were acclimatized to the laboratory environment for 7 days before the study commenced. During this period, they were kept in solitary cages with free access to water. Cats in the fasting group were deprived of food for 12 h prior to and 2 h following drug administration, while those in the feeding group were fed twice a day. Food and water sources were consistent throughout the trail. During and at the end of the experiment, we systematically assessed the adverse reactions by recording parameters such as body weight, behavior, and coat gloss in all test cats both before and after the trial. These observations were conducted to evaluate whether any adverse reactions occurred. All procedures were reviewed and approved by the Institutional Animal Care and Use Committee of China Agricultural University (11305-23-E-002).
The UPLC-MS/MS system utilized a UPLC 1290 (Agilent) paired with a Phenomenex Kinetex C18 column (50 mm × 2.1 mm, 2.6 μm) for separation at a flow rate of 0.3 mL/min. The chromatographic mobile phase comprised water (A) and acetonitrile (B), both containing 0.1% formic acid. The gradient elution program was as follows: from 0.5 to 2.5 min, 10 to 95% B; from 2.5 to 4.5 min, 95% B; from 4.5 to 4.6 min, 95 to 10% B; and from 4.6 to 6.0 min, 10% B. The injection volume was 2 μL.
For mass spectrometry, an Agilent 6,475-LC-TQ equipped with an electrospray ion source was used. Multiple Reaction Monitoring (MRM) was selected to quantify KPT-335 in the positive ion mode. The ion transitions monitored were m/z 443.1 → 334.0 and 443.1 → 110.1 for KPT-335, and m/z 444.1 → 334.0 for the internal standard (IS). The cone voltage and collision energy were optimized for KPT-335 and the IS individually, set at 160 V and 25 eV, respectively. The optimized parameters for the instrument included an ion source temperature of 350°C, solvent removal temperature of 320°C, capillary voltage of 3.0 kV, and a solvent gas flow rate of 300 L/h.
The method was developed based on prior research conducted in the laboratory ([16]) and validated in accordance with international guidelines ([17]). The calibration concentration range for KPT-335 spanned from 0.5 to 100 ng/mL, with a lower limit of quantification (LLOQ) set at 0.5 ng/mL. The squared correlation coefficient (R^2) values exceeded 0.999, indicating high linearity.
For sample preparation, 100 μL of plasma was mixed with 10 μL of internal standard (IS) and 900 μL of acetonitrile, followed by vortexing for 2 min. The mixture was then centrifuged at 13,400 × g at 4°C for 10 min. The supernatant was filtered through a 0.22 μm organic membrane, and the resulting sample was analyzed using UPLC-MS/MS.
Cats were divided into seven groups, with six cats in each group. In the intravenous (i.v.) group (Group 1), cats received an injection of KPT-335 at a dosage of 1 mg/kg body weight (BW), administered via a bolus through a venous infusion needle. For the oral (p.o.) administration, cats were given capsules in a fasting state at doses of 0.2 mg/kg BW (Group 2), 1 mg/kg BW (Group 3), and 2 mg/kg BW (Group 4). Additionally, tablets were administered at 1 mg/kg BW (fasting, Group 5), 1 mg/kg BW (Group 6), and 2 mg/kg BW (Group 7) in a feeding state, followed by 3 mL of water delivered with a syringe.
For the p.o. administration, blood samples of 1.5 mL were collected via the brachial cephalic vein prior to administration and at 0.167, 0.333, 0.5, 0.75, 1, 1.5, 2, 4, 6, 8, 12, 24, 32, and 48 h post-administration. […]

[1] = cats, i.v., Injection, 1 mg/kg BW
[2] = cats, p.o., Capsule, Fasting, 0.2 mg/kg BW
[3] = cats, p.o., Capsule, Fasting, 1 mg/kg BW
[4] = cats, p.o., Capsule, Fasting, 2 mg/kg BW
[5] = cats, p.o., Tablet, Fasting, 1 mg/kg BW
[6] = cats, p.o., Tablet, Feeding, 1 mg/kg BW

O=C(/C=C\n1cnc(-c2cc(C(F)(F)F)cc(C(F)(F)F)c2)n1)NNc1ccccn1 [KPT-335]
Plasma concentration (cats, i.v. 1 mg/kg BW, 1 h, 1 mg/kg, in ng/mL): 643.90 and 242.31 and 664.36 and 555.75 and 518.04 and 558.85
Plasma concentration (cats, i.v. 1 mg/kg BW, 2 h, 1 mg/kg, in ng/mL): 490.02 and 194.67 and 604.45 and 427.47 and 433.50 and 495.92
Plasma concentration (cats, i.v. 1 mg/kg BW, 4 h, 1 mg/kg, in ng/mL): 278.69 and 140.14 and 326.77 and 250.68 and 245.55 and 286.46
Plasma concentration (cats, i.v. 1 mg/kg BW, 8 h, 1 mg/kg, in ng/mL): 92.64 and 60.90 and 157.56 and 64.79 and 88.37 and 110.98
Plasma concentration (cats, i.v. 1 mg/kg BW, 12 h, 1 mg/kg, in ng/mL): 91.54 and 31.99 and 27.73 and 24.10 and 36.17 and 25.48
Plasma concentration (cats, i.v. 1 mg/kg BW, 24 h, 1 mg/kg): 2.04 ng/mL and 1.82 ng/mL
Plasma concentration (cats, i.v. 1 mg/kg BW, 24 h, 1 mg/kg, in ng/mL): 11.88 and 15.46 and 18.84 and 11.18
Plasma concentration (cats, i.v. 1 mg/kg BW, 32 h, 1 mg/kg): 2.52 and 2.36 and 9.45 and 1.34 and 8.61 and BLOQ
Plasma concentration (cats, i.v. 1 mg/kg BW, 48 h): BLOQ
AUC_%Extrap_obs [1]: 0.83 ± 0.69%
HL_Lambda_z [1]: 3.93 ± 0.84 h
reduction of absolute bioavailability when dosage is increased to 2 mg/kg BW (cats, p.o.): 15–25%
AUC_%Extrap_obs [2]: 7.53 ± 7.79%
HL_Lambda_z [2]: 7.04 ± 3.26 h
AUC_%Extrap_obs [3]: 0.47 ± 0.13%
HL_Lambda_z [3]: 5.37 ± 1.01 h
AUC_%Extrap_obs [4]: 0.75 ± 0.38%
HL_Lambda_z [4]: 6.78 ± 0.97 h
AUC_%Extrap_obs [5]: 0.82 ± 0.39%
HL_Lambda_z [5]: 5.76 ± 1.16 h
AUC_%Extrap_obs [6]: 0.92 ± 1.43%
HL_Lambda_z [6]: 4.20 ± 1.26 h
AUC_%Extrap_obs (cats, p.o., Tablet, Feeding, 2 mg/kg BW): 0.39 ± 0.24%
HL_Lambda_z (cats, p.o., Tablet, Feeding, 2 mg/kg BW, 2 mg/kg): 3.54 h and 3.54 ± 0.81 h
impact of feeding on the AUC (cats, tablet 1 mg/kg BW fasting vs feeding): minimal to no impact
Plasma concentration (cats, tablet p.o. 1 mg/kg BW after fasting, 48 h, 1 mg/kg): BLOQ
Plasma concentration (cats, tablet p.o. 1 mg/kg BW after feeding, 24 h, 1 mg/kg): BLOQ
Plasma concentration (cats, tablet p.o. 1 mg/kg BW after feeding, 32 h, 1 mg/kg): BLOQ
Plasma concentration (cats, tablet p.o. 1 mg/kg BW after feeding, 48 h, 1 mg/kg): BLOQ
Plasma concentration (cats, tablet p.o. 2 mg/kg BW after feeding, 32 h, 2 mg/kg): BLOQ
Plasma concentration (cats, tablet p.o. 2 mg/kg BW after feeding, 48 h): BLOQ
AUC(0-t) (female, iv, 1 mg/kg, female cats, i.v., Injection, 1 mg/kg BW, read-out: AUClast Value females): 3060 ± 193 ng·h/mL
Cmax (female, iv, 1 mg/kg, female cats, i.v., Injection, 1 mg/kg BW, read-out: Cmax Value females): 886 ± 54 ng/mL
AUC(0-t) (female, po, 0.2 mg/kg, female cats, p.o., Capsule, Fasting, 0.2 mg/kg BW, read-out: AUClast Value females): 244 ± 23.4 ng·h/mL
Cmax (female, po, 0.2 mg/kg, female cats, p.o., Capsule, Fasting, 0.2 mg/kg BW, read-out: Cmax Value females): 31.1 ± 11.2 ng/mL
AUC(0-t) (female, po, 1 mg/kg, female cats, p.o., Capsule, Fasting, 1 mg/kg BW, read-out: AUClast Value females): 1490 ± 292 ng·h/mL
Cmax (female, po, 1 mg/kg, female cats, p.o., Capsule, Fasting, 1 mg/kg BW, read-out: Cmax Value females): 284 ± 95.8 ng/mL
AUC(0-t) (female, po, 1 mg/kg, female cats, p.o., Tablet, Fasting, 1 mg/kg BW, read-out: AUClast Value females): 2480 ± 1160 ng·h/mL
Cmax (female, po, 1 mg/kg, female cats, p.o., Tablet, Fasting, 1 mg/kg BW, read-out: Cmax Value females): 220 ± 48.4 ng/mL
AUC(0-t) (female, po, 1 mg/kg, female cats, p.o., Tablet, Feeding, 1 mg/kg BW, read-out: AUClast Value females): 2660 ± 1870 ng·h/mL
Cmax (female, po, 1 mg/kg, female cats, p.o., Tablet, Feeding, 1 mg/kg BW, read-out: Cmax Value females): 467 ± 139 ng/mL
AUC(0-t) (female, po, 2 mg/kg, female cats, p.o., Capsule, Fasting, 2 mg/kg BW, read-out: AUClast Value females): 1830 ± 39.6 ng·h/mL
Cmax (female, po, 2 mg/kg, female cats, p.o., Capsule, Fasting, 2 mg/kg BW, read-out: Cmax Value females): 233 ± 52.4 ng/mL
AUC(0-t) (female, po, 2 mg/kg, female cats, p.o., Tablet, Feeding, 2 mg/kg BW, read-out: AUClast Value females): 2840 ± 1090 ng·h/mL
Cmax (female, po, 2 mg/kg, female cats, p.o., Tablet, Feeding, 2 mg/kg BW, read-out: Cmax Value females): 538 ± 150 ng/mL
AUC(0-t) (male, iv, 1 mg/kg, male cats, i.v., Injection, 1 mg/kg BW, read-out: AUClast Value males): 3290 ± 1300 ng·h/mL
Cmax (male, iv, 1 mg/kg, male cats, i.v., Injection, 1 mg/kg BW, read-out: Cmax Value males): 816 ± 443 ng/mL
AUC(0-t) (male, po, 0.2 mg/kg, male cats, p.o., Capsule, Fasting, 0.2 mg/kg BW, read-out: AUClast Value males): 312 ± 241 ng·h/mL
Cmax (male, po, 0.2 mg/kg, male cats, p.o., Capsule, Fasting, 0.2 mg/kg BW, read-out: Cmax Value males): 24.1 ± 6.3 ng/mL
AUC(0-t) (male, po, 1 mg/kg, male cats, p.o., Capsule, Fasting, 1 mg/kg BW, read-out: AUClast Value males): 1340 ± 704 ng·h/mL
Cmax (male, po, 1 mg/kg, male cats, p.o., Capsule, Fasting, 1 mg/kg BW, read-out: Cmax Value males): 237 ± 56.7 ng/mL
AUC(0-t) (male, po, 1 mg/kg, male cats, p.o., Tablet, Fasting, 1 mg/kg BW, read-out: AUClast Value males): 2340 ± 453 ng·h/mL
Cmax (male, po, 1 mg/kg, male cats, p.o., Tablet, Fasting, 1 mg/kg BW, read-out: Cmax Value males): 307 ± 183 ng/mL
AUC(0-t) (male, po, 1 mg/kg, male cats, p.o., Tablet, Feeding, 1 mg/kg BW, read-out: AUClast Value males): 1850 ± 11.1 ng·h/mL
Cmax (male, po, 1 mg/kg, male cats, p.o., Tablet, Feeding, 1 mg/kg BW, read-out: Cmax Value males): 261 ± 38.3 ng/mL
AUC(0-t) (male, po, 2 mg/kg, male cats, p.o., Capsule, Fasting, 2 mg/kg BW, read-out: AUClast Value males): 1850 ± 1290 ng·h/mL
Cmax (male, po, 2 mg/kg, male cats, p.o., Capsule, Fasting, 2 mg/kg BW, read-out: Cmax Value males): 328 ± 259 ng/mL
AUC(0-t) (male, po, 2 mg/kg, male cats, p.o., Tablet, Feeding, 2 mg/kg BW, read-out: AUClast Value males): 3160 ± 107 ng·h/mL
Cmax (male, po, 2 mg/kg, male cats, p.o., Tablet, Feeding, 2 mg/kg BW, read-out: Cmax Value males): 580 ± 56 ng/mL
